Where a name gives a salt, the structure may show the parent alone.
Experiments:
[1] = system: Columbia SK virus; test: Antiviral effects against an interferon-sensitive virus, Columbia SK; type: in vivo, Taconic Farms male, white mice; settings: 400 mg/kg oral, 18 hours before infection; 14 days post injection
Protocol: Taconic Farms male, white mice, weighing 18-24 g were treated by gavage, 18 hours before infection with a test compound suspended or dissolved in 1.0 ml of 0.2% aqueous agar solution. The mice were then infected by subcutaneous injection with one LD95 of Columbia SK virus in 0.2 ml of distilled water. Groups of infected, untreated mice were used as controls to show the lethality of the infection. The test duration was 14 days.

[2] = system: Rauscher Virus-Induced Leukemia; test: Inhibition of splenomegaly in mice with Rauscher virus-induced leukemia; type: in vivo, Balb/c mice; settings: for reduction in splenomegaly: general statement, no dose, relative to placebo treated RLV-infected mice
[3] = system: B16 melanoma; test: Distribution of metastatic foci in lungs of mice inoculated subcutaneously with B16 melanoma; type: in vivo, BDF1 mice; settings: for No. of mice with 0 lung foci/mouse / No. of mice with 1-5 lung foci/mouse / No. of mice with 6-10 lung foci/mouse / No. of mice with 11-15 lung foci/mouse / No. of mice with >15 lung foci/mouse: day 25
Protocol: BDF1 male mice inoculated subcutaneously with 0.25 ml of a 10% tumor
homogenate on day 0. Drugs administered intraperitoneally days 1,5,9 and
13; mice sacrificed on day 25, 10 mice per group. Distribution of […]

[4] = system: Columbia SK virus; test: Protection of mice against lethal Columbia SK virus infection by oral pre-treatment; type: in vivo, random-bred Swiss male mice; settings: 200 mg/kg oral
Protocol: At 24, 48, 72 and 96 hours after drug treatment, separate groups of mice were injected SC with an LD95 dose of the interferon sensitive virus, Columbia SK. […] Typically, protection from lethal infection with Columbia SK virus is associated with induction of interferon.

CCN(CC)C(C)COc1ccc2cc3ccc(OCC(C)N(CC)CC)cc3nc2c1.Cl.Cl.Cl (centres unmarked) [3,6-Bis(2-diethylaminopropoxy)acridine . 3HCl]
Survivors/Total [1]: 13/15

CCNCCOc1ccc2cc3ccc(OCCNCC)cc3nc2c1.Cl.Cl.Cl [3,6-Bis(2-ethylaminoethoxy)acridine trihydrochloride]
% Reduction in splenomegaly ([2]; 100 mg/kg): 89% | Survivors/Total [1]: 10/15

CCN(CC)CCOc1ccc2cc3ccc(OCCN(CC)CC)c([N+](=O)[O-])c3nc2c1[N+](=O)[O-] [3,6-bis(2-diethylaminoethoxy)-4,5-dinitroacridine]
% Reduction in splenomegaly ([2]; 100 mg/kg): 108%

CN(C)CCOc1ccc2cc3ccc(OCCN(C)C)cc3nc2c1.Cl.Cl.Cl [3,6-bis(2-dimethylaminoethoxy)acridine trihydrochloride]
No. of mice with 0 lung foci/mouse ([3]; 6.5 mg/kg i.p.): 0 | No. of mice with 1-5 lung foci/mouse ([3]; 6.5 mg/kg i.p.): 3 | No. of mice with 6-10 lung foci/mouse ([3]; 6.5 mg/kg i.p.): 3 | No. of mice with 11-15 lung foci/mouse ([3]; 6.5 mg/kg i.p.): 1 | No. of mice with >15 lung foci/mouse ([3]; 6.5 mg/kg i.p.): 1 | No. of mice with 0 lung foci/mouse ([3]; 12.5 mg/kg i.p.): 1 | No. of mice with 1-5 lung foci/mouse ([3]; 12.5 mg/kg i.p.): 5 | No. of mice with 6-10 lung foci/mouse ([3]; 12.5 mg/kg i.p.): 1 | No. of mice with 11-15 lung foci/mouse ([3]; 12.5 mg/kg i.p.): 1 | No. of mice with >15 lung foci/mouse ([3]; 12.5 mg/kg i.p.): 1 | No. of mice with 0 lung foci/mouse ([3]; 25 mg/kg i.p.): 2 | No. of mice with 1-5 lung foci/mouse ([3]; 25 mg/kg i.p.): 4 | No. of mice with 6-10 lung foci/mouse ([3]; 25 mg/kg i.p.): 2 | No. of mice with 11-15 lung foci/mouse ([3]; 25 mg/kg i.p.): 1 | No. of mice with >15 lung foci/mouse ([3]; 25 mg/kg i.p.): 0 | No. of mice with 0 lung foci/mouse ([3]; 50 mg/kg i.p.): 1 | No. of mice with 1-5 lung foci/mouse ([3]; 50 mg/kg i.p.): 1 | No. of mice with 6-10 lung foci/mouse ([3]; 50 mg/kg i.p.): 4 | No. of mice with 11-15 lung foci/mouse ([3]; 50 mg/kg i.p.): 0 | No. of mice with >15 lung foci/mouse ([3]; 50 mg/kg i.p.): 0 | No. of mice with 0 lung foci/mouse ([3]; 100 mg/kg i.p.): 3 | No. of mice with 1-5 lung foci/mouse ([3]; 100 mg/kg i.p.): 7 | No. of mice with 6-10 lung foci/mouse ([3]; 100 mg/kg i.p.): 0 | No. of mice with 11-15 lung foci/mouse ([3]; 100 mg/kg i.p.): 0 | No. of mice with >15 lung foci/mouse ([3]; 100 mg/kg i.p.): 0 | Mortality (in place of lung foci count) ([3]; 200 mg/kg i.p. days 1,5,9,13): All mice dead

O=c1[nH]cc(F)c(=O)[nH]1 [5-fluorouracil, reference compound]
% Reduction in splenomegaly ([2]; 50 mg/kg): 115% | reduction in splenomegaly [2]: ≥ 50% | No. of mice with 0 lung foci/mouse ([3]; 20 mg/kg i.p.): 1 | No. of mice with 1-5 lung foci/mouse ([3]; 20 mg/kg i.p.): 2 | No. of mice with 6-10 lung foci/mouse ([3]; 20 mg/kg i.p.): 1 | No. of mice with 11-15 lung foci/mouse ([3]; 20 mg/kg i.p.): 2 | No. of mice with >15 lung foci/mouse ([3]; 20 mg/kg i.p.): 1 | No. of mice with 0 lung foci/mouse ([3]; 25 mg/kg i.p.): 3 | No. of mice with 1-5 lung foci/mouse ([3]; 25 mg/kg i.p.): 3 | No. of mice with 6-10 lung foci/mouse ([3]; 25 mg/kg i.p.): 1 | No. of mice with 11-15 lung foci/mouse ([3]; 25 mg/kg i.p.): 1 | No. of mice with >15 lung foci/mouse ([3]; 25 mg/kg i.p.): 1 | No. of mice with 0 lung foci/mouse ([3]; 30 mg/kg i.p.): 3 | No. of mice with 1-5 lung foci/mouse ([3]; 30 mg/kg i.p.): 3 | No. of mice with 6-10 lung foci/mouse ([3]; 30 mg/kg i.p.): 3 | No. of mice with 11-15 lung foci/mouse ([3]; 30 mg/kg i.p.): 0 | No. of mice with >15 lung foci/mouse ([3]; 30 mg/kg i.p.): 0 | No. of mice with 0 lung foci/mouse ([3]; 40 mg/kg i.p.): 2 | No. of mice with 1-5 lung foci/mouse ([3]; 40 mg/kg i.p.): 5 | No. of mice with 6-10 lung foci/mouse ([3]; 40 mg/kg i.p.): 4 | No. of mice with 11-15 lung foci/mouse ([3]; 40 mg/kg i.p.): 0 | No. of mice with >15 lung foci/mouse ([3]; 40 mg/kg i.p.): 0 | No. of mice with 0 lung foci/mouse ([3]; 50 mg/kg i.p.): 2 | No. of mice with 1-5 lung foci/mouse ([3]; 50 mg/kg i.p.): 4 | No. of mice with 6-10 lung foci/mouse ([3]; 50 mg/kg i.p.): 3 | No. of mice with 11-15 lung foci/mouse ([3]; 50 mg/kg i.p.): 0 | No. of mice with >15 lung foci/mouse ([3]; 50 mg/kg i.p.): 0

Sc1ncnc2nc[nH]c12 [6-Mercaptopurine, 6-mercaptopurine, reference compound]
% Reduction in splenomegaly ([2]; 100 mg/kg): 113% | reduction in splenomegaly [2]: ≥ 50%

CN(Cc1cnc2nc(N)nc(N)c2n1)c1ccc(C(=O)N[C@@H](CCC(=O)O)C(=O)O)cc1 [Methotrexate, reference compound]
% Reduction in splenomegaly ([2]; 4 mg/kg): 59% | reduction in splenomegaly [2]: ≥ 50%

CCN(CC)CCOc1ccc2c(c1)C(=O)c1cc(OCCN(CC)CC)ccc1-2 [Tilorone, tilorone hydrochloride, reference compound]
Survivors/Total (14 Days) ([4]; -24 hr relative to virus challenge, * p <.01): 18/20 | Survivors/Total (14 Days) ([4]; -48 hr relative to virus challenge, * p <.01): 15/20 | Survivors/Total (14 Days) ([4]; -72 hr relative to virus challenge, * p <.01): 9/20 | Survivors/Total (14 Days) ([4]; -96 hr relative to virus challenge): 8/20

— patent publication US4314061A, “Certain 3,6-bis-(heteroaminoalkoxy) acridines” (priority 1980, dated 1982)
